US4412988A, “Hexapeptides” (Roussel Uclaf, priority 1980, dated 1983)

System: rats
Experiment: Action against extinction of a practice of active avoiding a negative reinforcement (conditional avoidance response, deWeid apparatus)
Type: in vivo
Conditions: subcutaneous, phosphate-zinc complex, percent relative to conditional responses in first extinction test before treatment; for % of conditional response in course of extinction period after 2 hours: 2 hours after injection, untreated control 60; for % of conditional response in course of extinction period after 4 hours: 4 hours after injection, untreated control 30
Method: The action against extinction of a practice of active avoiding a negative reinforcement was determined using an apparatus described by deWeid (Proc. Soc. Ex. Biol. Med.,) Vol. 122 ([…]) p. 28). The practice is effected in a box equipped with a 60 W lamp (conditional stimulus: CS), a mat and an electrifiable floor connected to an electric stimulus which permits the delivery of a painful shock of 75 volts (unconditional stimulus US). The conditional stimulus is present only for 5 seconds, then is associated with an unconditional stimulus just as the animal grips the mat realizing as well the avoidance response desired. The conditional response is acquired when the animal responds to the conditional stimulus.
10 tests at 60 second intervals were effected daily for 3 days and examination of the extinction of the practice realized with suppression of the unconditional stimulus is followed on the 4th day with 3 tests at 2 hour intervals with the animals presenting at least 7 conditional responses.
The compounds were injected subcutaneously as a phosphate-zinc complex before the first test of extinction of practice to group of 5 rats and the results were compared with an untreated control group of rats. The evolution of the conditional response in the course of the period of extinction of practice 2 and 4 hours after the injection of the compound is expressed as the percent of variation with respect to the number of conditional responses observed in the first test of extinction before treatment.

Substance	% of conditional response in course of extinction period after 2 hours (dose 1 μg/rat) [%]	% of conditional response in course of extinction period after 4 hours (dose 1 μg/rat) [%]	% of conditional response in course of extinction period after 2 hours (dose 10 μg/rat) [%]	% of conditional response in course of extinction period after 4 hours (dose 10 μg/rat) [%]
Cyclic disulfide (1→4) of N-[cysteinylglutamylhistidylcysteinyl-D-lysyl]-phenylalanine [Example 3]	75	29	70	50
Acetate of cyclic disulide (1→4) of N-[Cysteinylalanylanylcysteinyl-D-lysyl]-phenylalanine [Example 2]	59	35	71	75
Acetate of cyclic disulfide (1→6) of N-[cysteinylalanylalanylphenylalanyl-D-lysyl]-cysteine [Example 1]	51	49	76	71
